In patent US5972933A, “Method of treating microbial infections” (Ed. Geistlich Sohne AG Fur Chemische Industrie, priority 1998, dated 1999):

Tests used:
VRE, designated HAM-1 = conditions: commonly encountered VRE; cited from earlier work
S. aureus NCTC 6571 = experiment: Disc sensitivity testing (Stokes), reference strain; format: cell-based, Staphylococcus aureus; conditions: CLX
Experimental: All routine sensitivity testing was performed using a standard disc diffusion technique (Stokes) performed on Unipath (Oxoid) Diagnostic Sensitivity Test agar with 5% lysed horse blood.
Testing of Staphylococci--Staphylococcus aureus (Oxford strain) NCTC 6571
Inocula for test and control organisms were prepared from overnight 37° C. Unipath (Oxoid) Brain Heart Infusion broth cultures. Prom these well-mixed cultures, 2 drops ([…]) were transferred to 3 ml sterile water. This suspension was used to moisten sterile cotton tipped swabs which were then used with a rotary plater for inoculation of test plates.
The following disc sets were used for sensitivity testing:
Methicillin Sensitivity Testing
Methicillin (cloxacillin) sensitivity for Staphylococci was confirmed using a methicillin test strips (Methi-test, Medical Wire Limited--MW981) and a heavy inoculum. This was prepared by adding 5 colonies from an overnight nutrient agar plate culture 3 ml water.
For each organism, including sensitive and resistant controls, a loop was charged with the heavy inoculum suspension and streaked across a Unipath (Oxoid) Diagnostic Sensitivity Test plus 5% lysed horse blood agar plate in a single direction. A methicillin strip was then placed on the surface of the plate at right angles to the inocula. […]

EMRSA 15 strains = conditions: local EMRSA 15 strains, typically; cited from earlier work
Staph. app. = experiment: Resistance to Vancomycin (30 μg/Disc), Staph. app.; format: cell-based
Experimental: ^1 VE30: Resistance to Vancomycin (30 μg/Disc)

bacteria and fungi [1] = conditions: known antimicrobial substances; cited from earlier work
TNF production = TNF production in human blood / antibiotic-treated cultures; format: cell-based
Excerpt: Taurolidine and/or Taurultam prevent over-production of cytokines in the patient by monocytes of the blood.

bacteria and fungi [2] = experiment: Antimicrobial activity (general statements); format: cell-based
[3] = cited from earlier work

Molecule	in vitro resistance of strain (VRE, designated HAM-1)	in vitro resistance of strain (EMRSA 15 strains)	other results
Teicoplanin	resistance in vitro		
Cc1onc(-c2ccccc2Cl)c1C(=O)N[C@@H]1C(=O)N2[C@@H]1SC(C)(C)[C@@H]2C(=O)O [Cloxacillin]		resistant in vitro	disc sensitivity, methicillin (cloxacillin) (S. aureus NCTC 6571): S (Test zones <5 mm smaller than the control zone are SENSITIVE)
CC[C@H]1OC(=O)[C@H](C)[C@@H](O[C@H]2C[C@@](C)(OC)[C@@H](O)[C@H](C)O2)[C@H](C)[C@@H](O[C@@H]2O[C@H](C)C[C@H](N(C)C)[C@H]2O)[C@](C)(O)C[C@@H](C)C(=O)[C@H](C)[C@@H](O)[C@]1(C)O [Erythromycin]	resistance in vitro	resistant in vitro	
CCC[C@@H]1C[C@@H](C(=O)N[C@@H]([C@H]2O[C@H](SC)[C@H](O)[C@@H](O)[C@H]2O)[C@H](C)Cl)N(C)C1 [Clindamycin, clindamycin]		resistant in vitro	
COc1cccc(OC)c1C(=O)N[C@@H]1C(=O)N2[C@@H]1SC(C)(C)[C@@H]2C(=O)O [Methicillin, methicillin]		resistant in vitro	
CN[C@H](CC(C)C)C(=O)N[C@H]1C(=O)N[C@@H](CC(N)=O)C(=O)N[C@H]2C(=O)N[C@H]3C(=O)N[C@H](C(=O)N[C@H](C(=O)O)c4cc(O)cc(O)c4-c4cc3ccc4O)[C@H](O)c3ccc(c(Cl)c3)Oc3cc2cc(c3O[C@@H]2O[C@H](CO)[C@@H](O)[C@H](O)[C@H]2O[C@H]2C[C@](C)(N)[C@H](O)[C@H](C)O2)Oc2ccc(cc2Cl)[C@H]1O [Vancomycin]	resistance in vitro		VE30: Resistance to Vancomycin (Staph. app.): S
Gentamicin	high level gentamicin resistance		
O=S1(=O)CCNCN1 [Taurultam]			antimicrobial spectrum (bacteria and fungi [1]): broad-spectrum activity against aerobic and anaerobic bacteria, mycobacteria and fungi; TNF production (TNF production; added to antibiotic-treated cultures): prevents a rise in TNF production; neutralization of released endotoxins (TNF production; antibiotic-treated cultures): nearly complete neutralization of released endotoxins; rate of bacterial killing (bacteria and fungi [2]): kills bacteria slowly; resistance development (bacteria and fungi [2]): no resistance development by microbes has been observed; half-life in vivo [3]: short half-life in vivo
O=C(O)c1cn(C2CC2)c2cc(N3CCNCC3)c(F)cc2c1=O [Ciprofloxacin]		resistant in vitro	
C/C(=C\C(=O)OCCCCCCCCC(=O)O)C[C@@H]1OC[C@H](C[C@@H]2O[C@H]2[C@@H](C)[C@H](C)O)[C@@H](O)[C@H]1O [Mupirocin]		resistant in vitro	
CC1(C)S[C@@H]2[C@H](NC(=O)[C@H](N)c3ccccc3)C(=O)N2[C@H]1C(=O)O [Ampicillin]	resistance in vitro		
